Data published in patent publication US12285440B2, “APOE4 impairs myelination via altered cholesterol biosynthesis and transport in oligodendroglia” (Massachusetts Institute of Technology, priority 2021, dated 2025).

How the values were obtained:
iMGLs = test: Calcium imaging of Fluo-4 AM labeled iMGLs with compound uncaging; format: cell-based, human; conditions: 1 mM Caged NMDA or 1 mM Caged Glutamate, uncaging at 405 nm
[1] = system: APOE4 iPSC-derived oligodendroglia; test: APOE oligodendroglia drug treatment, bodipy-cholesterol and bodipy lipid droplet staining; format: cell-based, human; conditions: APOE4 oligodendroglia treated two weeks (Atorvastatin 1 μM, Simvastatin 1 μM, Cyclodextrin 10 mM); compared with APOE3/3 oligodendroglia
Procedure: It was reasoned that inhibiting cholesterol biosynthesis and/or facilitating cholesterol transport in APOE4 oligodendrocytes may reduce intracellular accumulation and improve myelination.
Cells were plated onto a Millipore eight-chamber glass slide, at a density of 250,000 cells per well. Cells were then cultured in Neurobasal media, supplemented with PDGFR-α, NT3 and β-FGF. […] Cells were fixed with 4% PFA, and stained for Bodipy-cholesterol, WGA-555 and DAPI.

SMILES | amplitude of calcium transients upon uncaging (iMGLs) | total bodipy-cholesterol staining [1]
CN[C@H](CC(=O)O)C(=O)O [NMDA] | increase the amplitude of calcium transients | 
CC(C)c1c(C(=O)Nc2ccccc2)c(-c2ccccc2)c(-c2ccc(F)cc2)n1CC[C@@H](O)C[C@@H](O)CC(=O)O [atorvastatin] |  | significantly (p=0.0085 and 0.0450) higher than APOE3/3 oligodendroglia
N[C@@H](CCC(=O)O)C(=O)O [glutamate] | increase the amplitude of calcium transients | 
